The source of these data is publication PMC6881293, “Nanomolar-potency ‘co-potentiator’ therapy for cystic fibrosis caused by a defined subset of minimal function CFTR mutants” (Scientific Reports, 2019).

Each structure is given as a SMILES string.

One experiment relates to G551D-CFTR. On the set-up: method as in PMID 29903467. The following applies: previously showed; cited from earlier work.
The target of the next experiment is T1, M1101K-CFTR (Homo sapiens, UniProt P13569, M1101K).
T1 construct: expressed in transfected cells; host or cells: Fischer rat thyroid (FRT) cells; gift from Drs; Andras Rab and Jeong Hong (Emory University)
T1 sequence (P13569 whole entry M1101K): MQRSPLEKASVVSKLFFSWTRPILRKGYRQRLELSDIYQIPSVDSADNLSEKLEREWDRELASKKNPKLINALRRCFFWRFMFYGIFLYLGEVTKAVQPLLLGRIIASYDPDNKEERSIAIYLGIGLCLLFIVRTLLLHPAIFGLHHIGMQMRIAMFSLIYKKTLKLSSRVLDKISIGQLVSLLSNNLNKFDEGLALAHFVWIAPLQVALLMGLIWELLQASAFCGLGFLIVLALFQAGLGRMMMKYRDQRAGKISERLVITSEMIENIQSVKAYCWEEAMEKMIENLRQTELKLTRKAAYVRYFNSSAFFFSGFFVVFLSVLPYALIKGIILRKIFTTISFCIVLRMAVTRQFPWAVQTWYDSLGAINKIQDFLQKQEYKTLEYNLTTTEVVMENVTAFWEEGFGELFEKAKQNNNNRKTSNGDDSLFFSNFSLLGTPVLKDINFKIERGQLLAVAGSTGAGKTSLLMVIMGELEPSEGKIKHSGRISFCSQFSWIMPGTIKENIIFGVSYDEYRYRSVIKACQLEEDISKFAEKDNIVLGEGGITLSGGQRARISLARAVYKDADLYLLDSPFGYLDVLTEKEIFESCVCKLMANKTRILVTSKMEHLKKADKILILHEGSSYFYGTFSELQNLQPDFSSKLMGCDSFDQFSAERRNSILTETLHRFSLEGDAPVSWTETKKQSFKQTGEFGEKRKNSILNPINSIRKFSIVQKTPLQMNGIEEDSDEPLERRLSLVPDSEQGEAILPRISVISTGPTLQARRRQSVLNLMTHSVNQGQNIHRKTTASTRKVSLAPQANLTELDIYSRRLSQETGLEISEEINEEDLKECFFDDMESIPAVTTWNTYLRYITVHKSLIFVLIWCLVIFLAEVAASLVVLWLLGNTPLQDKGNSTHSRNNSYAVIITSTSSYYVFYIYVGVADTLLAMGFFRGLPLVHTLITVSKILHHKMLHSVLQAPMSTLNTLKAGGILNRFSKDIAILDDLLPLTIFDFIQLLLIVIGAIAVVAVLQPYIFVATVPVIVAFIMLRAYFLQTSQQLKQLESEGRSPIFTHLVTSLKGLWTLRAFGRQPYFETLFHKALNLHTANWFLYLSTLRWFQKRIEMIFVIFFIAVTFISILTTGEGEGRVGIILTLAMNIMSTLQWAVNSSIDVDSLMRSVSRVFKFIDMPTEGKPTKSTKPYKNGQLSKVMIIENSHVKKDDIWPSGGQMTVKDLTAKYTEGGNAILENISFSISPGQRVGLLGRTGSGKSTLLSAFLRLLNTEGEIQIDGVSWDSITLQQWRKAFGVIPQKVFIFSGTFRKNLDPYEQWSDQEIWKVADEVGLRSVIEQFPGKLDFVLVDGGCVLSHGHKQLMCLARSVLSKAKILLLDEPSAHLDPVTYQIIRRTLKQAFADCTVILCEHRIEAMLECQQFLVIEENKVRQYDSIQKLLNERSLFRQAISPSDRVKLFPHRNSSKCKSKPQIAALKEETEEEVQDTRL
As to the kind of experiment: Short-circuit current in FRT cells expressing M1101K-CFTR. The format is cell-based. The following applies: 20 μM forskolin, 5 µM VX-770, 20 µM ASP-11. On the procedure:
(§1) As shown in Fig. 1C and summarized in Fig. 2, ASP-11 acted in synergy with VX-770 to increase chloride current in FRT cells expressing the NBD2 mutations I1234del- and Q1313X-CFTR by ~3–9-fold compared to VX-770. I1234del- and Q1313X-CFTR-expressing cells were also treated with VX-809 for 24 hours (to consider the effect of available CFTR therapeutics) with 2–3-fold greater currents observed.
(§2) Figure 2 Summary of short-circuit current responses to modulators for CFTR mutants in transfected FRT cells. Responses to indicated CFTR mutants with 20 μM forskolin, 5 µM VX-770, 20 µM ASP-11 (with or without 3 µM VX-809 overnight). For reference, data shown for cells expressing wild type CFTR. Mean ± S.E.M., n = 3.
(§3) Short-circuit current was measured on cells cultured on Snapwell clear permeable supports (Corning) as described[10],[11]. Hemichambers were connected to a DVC-1000 voltage clamp (World Precision Instruments Inc., Sarasota, FL) via Ag/AgCl electrodes and 3 M KCl agar bridges for recording of the short-circuit current. For human airway epithelial cells, symmetrical HCO3^−-buffered solutions (in mM: 120 NaCl, 5 KCl, 1 MgCl2, 1 CaCl2, 5 Hepes, 25 NaHCO3, 10 glucose, pH 7.4) for basolateral and apical side were used. […]

In a further experiment the target is T2, I1234del-CFTR (Homo sapiens, UniProt P13569, DEL1234-1239).
T2 construct: introduced into full-length CFTR cDNA in the vector pcDNA3.1/Zeo (+); expressed in transfected cells
T2 sequence (P13569 with tags, fused parts or gaps DEL1234-1239): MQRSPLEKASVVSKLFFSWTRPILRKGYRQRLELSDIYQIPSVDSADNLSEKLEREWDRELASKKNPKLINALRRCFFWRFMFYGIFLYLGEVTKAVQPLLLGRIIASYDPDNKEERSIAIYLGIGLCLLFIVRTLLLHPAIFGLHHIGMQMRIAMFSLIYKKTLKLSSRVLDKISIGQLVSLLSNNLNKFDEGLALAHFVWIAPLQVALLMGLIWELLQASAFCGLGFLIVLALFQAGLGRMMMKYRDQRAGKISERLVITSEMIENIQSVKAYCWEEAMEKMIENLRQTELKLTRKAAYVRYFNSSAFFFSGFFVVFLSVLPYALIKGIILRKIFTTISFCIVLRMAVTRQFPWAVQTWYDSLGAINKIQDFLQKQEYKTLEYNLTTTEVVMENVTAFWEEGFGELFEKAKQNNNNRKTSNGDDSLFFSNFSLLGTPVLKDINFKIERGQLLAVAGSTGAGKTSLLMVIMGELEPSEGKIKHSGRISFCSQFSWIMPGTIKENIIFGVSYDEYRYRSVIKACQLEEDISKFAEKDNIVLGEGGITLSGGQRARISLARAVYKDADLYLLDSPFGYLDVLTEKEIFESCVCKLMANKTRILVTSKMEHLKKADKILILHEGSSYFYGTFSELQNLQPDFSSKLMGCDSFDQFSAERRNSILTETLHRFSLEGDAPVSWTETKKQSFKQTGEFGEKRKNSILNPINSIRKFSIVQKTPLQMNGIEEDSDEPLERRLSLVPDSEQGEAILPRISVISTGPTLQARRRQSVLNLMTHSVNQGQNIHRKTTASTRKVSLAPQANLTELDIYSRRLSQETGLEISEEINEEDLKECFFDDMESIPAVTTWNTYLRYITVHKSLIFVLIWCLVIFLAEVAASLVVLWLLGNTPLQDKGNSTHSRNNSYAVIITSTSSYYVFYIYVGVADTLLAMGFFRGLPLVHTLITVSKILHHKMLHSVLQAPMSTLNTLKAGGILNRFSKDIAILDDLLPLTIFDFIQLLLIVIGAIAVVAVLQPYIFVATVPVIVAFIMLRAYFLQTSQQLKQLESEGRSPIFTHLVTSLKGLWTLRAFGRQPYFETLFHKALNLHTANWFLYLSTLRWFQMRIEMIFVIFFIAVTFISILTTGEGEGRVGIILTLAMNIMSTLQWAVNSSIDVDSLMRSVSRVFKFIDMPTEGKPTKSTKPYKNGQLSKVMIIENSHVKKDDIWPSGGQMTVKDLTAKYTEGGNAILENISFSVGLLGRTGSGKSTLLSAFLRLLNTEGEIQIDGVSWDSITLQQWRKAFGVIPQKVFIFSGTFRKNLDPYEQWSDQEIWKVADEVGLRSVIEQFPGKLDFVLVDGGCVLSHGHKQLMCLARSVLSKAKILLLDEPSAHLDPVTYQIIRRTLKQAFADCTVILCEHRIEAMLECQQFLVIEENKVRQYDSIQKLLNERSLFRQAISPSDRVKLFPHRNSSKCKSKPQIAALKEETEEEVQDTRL
Nature of the experiment: Short-circuit current in FRT cells expressing I1234del-CFTR. The experiment is classed as cell-based. As to conditions: I1234del-CFTR FRT cells; 20 µM forskolin, 5 µM VX-770, 20 µM ASP-11; range stated jointly for I1234del- and Q1313X-CFTR. On the procedure: Figure 1 Co-potentiator ASP-11 activity in minimal function CFTR mutants in transfected FRT cells. (A) Structure of ASP-11. (B) Location of minimal function CFTR mutants studied herein. (C) Representative short-circuit current data in FRT cells expressing I1234del-CFTR, Q1313X-CFTR and S492F-CFTR in response to 20 µM forskolin (fsk), 5 µM VX-770, 20 µM ASP-11 and 10 μM CFTRinh-172. As indicated, cells were treated with 3 µM VX-809 for 18–24 h prior to measurements. (n = 3) (D). Representative short-circuit current data in FRT cells expressing predicted W1282X-CFTR read-through products W1282L-CFTR, W1282R-CFTR and W1282C-CFTR (without and with VX-809 pretreatment) (n = 3). MSD, membrane spanning domain; NBD, nucleotide binding domain; R, regulatory domain.
as §1
Short-circuit current was measured on cells cultured on Snapwell clear permeable supports (Corning) as described[10],[11]. […]

In the next experiment the target is T3, L1077P-CFTR (Homo sapiens, UniProt P13569, L1077P).
T3 construct: expressed in transfected cells; host or cells: Fischer rat thyroid (FRT) cells; gift from Drs; Andras Rab and Jeong Hong (Emory University)
T3 sequence (P13569 whole entry L1077P): as the sequence (P13569 whole entry M1101K) above, with L1077P, K1101M counted along it
As to the kind of experiment: Short-circuit current in FRT cells expressing L1077P-CFTR. The experiment is classed as cell-based. The following applies: 20 μM forskolin, 5 µM VX-770, 20 µM ASP-11. On the procedure:
as §1, §2, §3

As to `CCCCn1cc(S(=O)(=O)Nc2ccc(CC)cc2)c2cccnc21` [ASP-11], in the experiment on G551D-CFTR, the “activation of G551D-CFTR” value is “activates G551D-CFTR”. Besides, the “ASP-11 effect on short-circuit current” value on M1101K-CFTR and on L1077P-CFTR was “absence of ASP-11 effect” throughout. Besides, the “fold increase in chloride current with ASP-11 plus VX-770 compared to VX-770 alone” value at I1234del-CFTR is given as 3–9 fold.
